Series [1] has as its system HepG2. In words: Anticancer activity against human HepG2 cells at 50 ug/ml measured after 48 hrs relative to control. Format: functional. The note with it: dose 50 µg/ml.
The subject of series [2] is MCF7. Put plainly: Anticancer activity against human MCF7 cells assessed as inhibition of cell proliferation. It is filed as functional, cell-based.
In a further series the test system is KB. In words: Anticancer activity against human KB cells assessed as inhibition of cell proliferation. It is filed as functional, cell-based.
For the next series, the system named is Jurkat. In words: Cytotoxicity against human Jurkat cells. It is filed as functional, cell-based.
Series [3] concerns HCT-116. In words: Cytotoxicity against human HCT-116 cells incubated overnight by MTT assay. Format: functional, cell-based. For orientation: Tetrazolium assays rely on reduction of a dye to a coloured formazan, in cell work by metabolically active cells.
Series [4] relates to MCF7. In words: Cytotoxicity against human MCF7 cells incubated overnight by MTT assay. Format: functional, cell-based.
The test system of series [5] is HepG2. In words: Cytotoxicity against human HepG2 cells incubated overnight by MTT assay. It is filed as functional, cell-based.
Series [6] deals with MCF7. Put plainly: Cytotoxicity against human MCF7 cells assessed as lethal dose. Format: functional. The note with it: read-out: LD50 (the source's name).
Another series has as its system CT26. Put plainly: Anticancer activity against mouse CT26 cells at 50 ug/ml measured after 24 hrs relative to control. Format: functional. The note with it: dose 50 µg/ml.
The target of series [7] is T1, Androgen receptor (Homo sapiens, UniProt P10275). Put plainly: Antagonist activity at androgen receptor (unknown origin) assessed as inhibition constant.
Series [8] deals with T1, Androgen receptor. Put plainly: Antagonist activity at androgen receptor (unknown origin).
Series [9] has as its system MDA-MB-231. Put plainly: Antiproliferative activity against human MDA-MB-231 cells assessed as inhibition of cell viability by MTT assay. Format: functional, cell-based.
Series [10] deals with PC-3. Put plainly: Antiproliferative activity against human PC-3 cells assessed as inhibition of cell viability by MTT assay. Format: functional, cell-based.
For another series, the system named is DU-145. In words: Antiproliferative activity against human DU-145 cells assessed as inhibition of cell viability by MTT assay. Format: functional, cell-based.
Series [11] concerns MCF7. In words: Antiproliferative activity against human MCF7 cells by MTT assay. Format: functional, cell-based.
Series [12] concerns HL-60. In words: Induction of mitochondrial membrane potential loss in human HL-60 cells measured after 72 hrs by […] based flow cytometric analysis. It is filed as functional, cell-based. The note with it: HL-60, 72 h. For orientation: Flow cytometry measures light scatter and fluorescence of single cells or particles in a stream.
Series [13] relates to HL-60. Put plainly: Induction of mitochondrial membrane potential loss in human HL-60 cells measured after 72 hrs by TMRM dye based flow cytometric analysis. The note with it: HL-60, 72 h. It is filed as functional, cell-based.
For the next series, the system named is NCI-H460. In words: Growth inhibition of human NCI-H460 cells. Format: functional, cell-based.
For series [14], the system named is HCT-116. In words: Anticancer activity against human HCT-116 cells. Format: functional, cell-based.
Series [15] concerns HepG2. In words: Anticancer activity against human HepG2 cells assessed as inhibition of cell growth. It is filed as functional, cell-based.
Series [16] relates to MCF7. In words: Anticancer activity against human MCF7 cells assessed as inhibition of cell growth. Format: functional, cell-based.
Series [17] is described as follows: Cytotoxicity against human H357 cells. It is filed as functional, cell-based.
For series [18], the system named is MCF7. In words: Cytotoxicity against human MCF7 cells. Format: functional, cell-based.
The subject of series [19] is MDA-MB-231. In words: Cytotoxicity against human MDA-MB-231 cells. It is filed as functional, cell-based.
In series [20] the test system is HCT-116. In words: Cytotoxicity against human HCT-116 cells assessed a reduction in cell viability. Format: functional, cell-based.
A further series concerns CCRF-CEM. Put plainly: Anticancer activity against human CEM cells. Format: functional, cell-based.
A short description of series [21]: Anticancer activity against human BJ cells assessed as reduction in cell proliferation. Format: toxicity, cell-based.
The next series concerns HeLa. In words: Anticancer activity against human HeLa cells assessed as reduction in cell proliferation. Format: functional, cell-based.
Series [22] relates to MCF7. In words: Anticancer activity against human MCF7 cells assessed as reduction in cell proliferation. It is filed as functional, cell-based.
In a further series the test system is Bel-7402. Put plainly: Antiproliferative activity against human Bel-7402 cells. Format: functional, cell-based.
The nature of series [23]: Antiproliferative activity against human Panel (10 carcinoma cell lines) cells. Format: functional, cell-based.
The test system of the next series is MGC-803. In words: Antiproliferative activity against human MGC-803 cells assessed as cell growth inhibition. Format: functional, cell-based.
In series [24] the test system is HCT-116. Put plainly: Antiproliferative activity against human HCT-116 cells assessed as cell growth inhibition. Format: functional, cell-based.
In series [25] the test system is A549. Put plainly: Antiproliferative activity against human A549 cells assessed as cell growth inhibition. Format: functional, cell-based.
A further series has as its system UO-31. In words: Anticancer activity against human UO-31 cells assessed as reduction in cell proliferation. It is filed as functional, cell-based.
The test system of series [26] is A549. Put plainly: Anticancer activity against human A549 cells assessed as reduction in cell proliferation. Format: functional, cell-based.
A further series concerns HOP-92. In words: Anticancer activity against human HOP-92 cells assessed as reduction in cell proliferation. It is filed as functional, cell-based.
Series [27] concerns PC-3. In words: Anticancer activity against human PC-3 cells assessed as reduction in cell proliferation. It is filed as functional, cell-based.
The subject of series [28] is MDA-MB-231. Put plainly: Antiproliferative activity against human MDA-MB-231 cells assessed as reduction in tumor cell proliferation. It is filed as functional, cell-based.
The test system of a further series is HaCaT. In words: Growth inhibition of human HaCaT cells. Format: functional.

We go through 17 compounds from ChEMBL document CHEMBL5233269, “Anticancer potential of spirocompounds in medicinal chemistry: A pentennial expedition” (Eur J Med Chem, 2021).

Values after ≈ are worked out from the molar mass of the structure shown.

T1 sequence (P10275 whole entry): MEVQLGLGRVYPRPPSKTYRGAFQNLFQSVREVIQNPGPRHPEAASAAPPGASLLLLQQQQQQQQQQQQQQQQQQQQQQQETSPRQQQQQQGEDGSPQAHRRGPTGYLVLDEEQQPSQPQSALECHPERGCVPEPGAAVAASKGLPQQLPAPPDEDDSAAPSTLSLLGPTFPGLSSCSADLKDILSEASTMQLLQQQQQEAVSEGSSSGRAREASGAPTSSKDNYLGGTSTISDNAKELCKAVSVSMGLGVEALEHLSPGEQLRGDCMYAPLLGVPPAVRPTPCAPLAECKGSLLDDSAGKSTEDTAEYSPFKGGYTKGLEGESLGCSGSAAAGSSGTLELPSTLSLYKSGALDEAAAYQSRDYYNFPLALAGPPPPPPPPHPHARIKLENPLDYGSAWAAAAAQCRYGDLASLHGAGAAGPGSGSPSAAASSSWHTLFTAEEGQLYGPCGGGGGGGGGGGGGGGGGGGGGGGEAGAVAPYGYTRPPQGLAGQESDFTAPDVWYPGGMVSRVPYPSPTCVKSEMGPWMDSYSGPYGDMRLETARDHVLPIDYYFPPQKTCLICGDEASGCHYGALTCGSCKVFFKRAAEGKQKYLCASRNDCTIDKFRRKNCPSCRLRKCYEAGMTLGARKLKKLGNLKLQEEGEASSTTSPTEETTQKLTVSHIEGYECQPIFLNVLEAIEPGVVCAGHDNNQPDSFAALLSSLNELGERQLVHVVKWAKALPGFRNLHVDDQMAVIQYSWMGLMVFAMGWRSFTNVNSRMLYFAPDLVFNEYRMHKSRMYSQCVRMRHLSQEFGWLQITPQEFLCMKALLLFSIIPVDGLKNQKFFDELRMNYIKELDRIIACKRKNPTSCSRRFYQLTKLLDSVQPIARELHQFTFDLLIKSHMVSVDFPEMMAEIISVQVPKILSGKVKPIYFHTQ

`CCCCN1C(=O)C2(c3cc(F)ccc31)[C@@H](C(=O)OCC)[C@H](C(=O)OCC)NC2(CC(=O)OC)C(=O)OC` (stereo not given in full) displayed an Activity in the series with HepG2 [1] of 55.92%.

As a reminder, the IC50 is the midpoint of a concentration-inhibition curve. Turning to `O=C1NC(=O)C2(Cc3ccccc3N3CCSCC32)C(=O)N1` (stereo not given), the results for the IC50 with MCF7 [2] and in the series on KB were 90.2 µM and 49.8 µM, respectively.

In turn, `O=C(/C=C1\CC(=O)N(c2ccc(Cl)cc2)C1=O)Nc1ccc(Cl)cc1` displayed an IC50 in the series with Jurkat of 33.5 µM.

Turning to `O=C(/C=C/c1ccc(Br)cc1)[C@H]1[C@H](c2ccc(Br)cc2)C2CSCN2[C@]12C(=O)Nc1cc(Br)c(Br)cc12` (stereo not given in full), the values for the IC50 with HCT-116 [3], in the series on MCF7 [4] and in the series with HepG2 [5] were 2200 nM, 2500 nM and 50 µM, respectively.

On to `COC1=C(Br)[C@@H](O)[C@]2(C=C1Br)CC(C(=O)NCC(O)c1cc(Br)c(OCCCNC(=O)C3=NO[C@]4(C=C(Br)C(OC)=C(Br)[C@@H]4O)C3)c(Br)c1)=NO2` (stereo not given in full), for which the CC50 with MCF7 [6] amounted to 17 µg/mL (≈ 15.5 µM).

As for `CCOC(=O)[C@@H]1N[C@@](CC(=O)OC)(C(=O)OC)C2(C(=O)N(C(=O)OC(C)(C)C)c3ccccc32)[C@H]1c1ccc([N+](=O)[O-])cc1` (stereo not given in full), the Activity with CT26 is 58.89%.

Broadly, the Ki is a measure of affinity in units of concentration, obtained from inhibition or displacement. As to `COC(=O)c1ccc(C2C(=S)N(c3ccc(C#N)c(C(F)(F)F)c3)C(=O)[C@]23CCOC3)cc1F` (stereo not given in full), on Androgen receptor [7], the Ki came out at 5.6 nM. Besides, at Androgen receptor [8], the midpoint of inhibition, the IC50, lay at 33 nM.

In the case of `Clc1ccc(C2=NO[C@@]3(CCCCO3)[C@H]2Br)cc1`, the IC50 in the series with MDA-MB-231 [9] came to 53.1 µM; in the series with PC-3 [10] it was 56.7 µM; in the series on DU-145, 48.1 µM; in the series with MCF7 [11], 51.2 µM.

Turning to `O=C1CS/C(=C\C2c3ccccc3Nc3ccccc32)N1N(c1ccccc1)c1ccccc1`, the IC50 in the series on HL-60 [12] was found to be 32.2 µM; in the series on HL-60 [13], 25.9 µM.

Regarding `COc1ccc(/C=N/N2C(=O)C(C#N)=CC23c2ccccc2NC2C=CC=CC23)cc1` (stereo not given), in the series with NCI-H460, the IC50 turned out to be 120 nM.

Take `O=C1Nc2ccccc2C12CC(c1cn(S(=O)(=O)c3ccc(Cl)cc3)c3ccccc13)=NN2` (stereo not given): the figures for the IC50 with HCT-116 [14], in the series on HepG2 [15] and with MCF7 [16] were 20.5 µg/mL (≈ 43 µM), 19.2 µg/mL (≈ 40.3 µM) and 5.8 µg/mL (≈ 12.2 µM), respectively.

For the compound `CCOc1cccc2c1OCC1=CCC3(O[C@H]12)C(=O)c1ccccc1C3=O`, the IC50 in [17] was 55 µM; in the series on MCF7 [18], 20 µM; with MDA-MB-231 [19] it was 15 µM; in the series with HCT-116 [20], 27.5 µM.

On to `CC1CO[C@@]2(O[C@H]3CC4C5CC[C@@H]6C[C@@H](O)CC[C@]6(C)C5CC(=O)[C@]4(C)[C@H]3[C@@H]2C)/C(=C/c2ccccc2)C1` (stereo not given in full), for which the IC50 turned out to be 23.2 µM in the series with CCRF-CEM, 45.3 µM in series [21], 35.7 µM in the series on HeLa and 19.9 µM in the series on MCF7 [22].

For `O=C(C[C@@H](CC1CCCC1)C(=O)N1CC2(CC2)C[C@H]1C(=O)Nc1ccc(F)cn1)NO`, the half-inhibitory concentration (IC50) is 4.88 µM in the series with Bel-7402; 2000 nM in series [23]; 4.88 µM in the series with MGC-803; 4.88 µM in the series on HCT-116 [24]; 4.88 µM with A549 [25].

Regarding `Cc1ccc(/C=C2\CN(C)C[C@]3(C2=O)[C@H](c2ccc(C)cc2)CN(C)[C@]32C(=O)N(CN3CCOCC3)c3ccccc32)cc1`, the IC50 in the series on UO-31 came out at 1770 nM; in the series on A549 [26], 3.59 µM; with HOP-92 it was 1400 nM; in the series on PC-3 [27], 831 nM.

Regarding `O=C1N(C2CCCCC2)C(=O)C2(CC(c3ccccc3O)=NCCN2)N1C1CCCCC1` (stereo not given), the IC50 with MDA-MB-231 [28] amounted to 44.6 µM.

By GI50 is commonly meant the concentration that inhibits growth by half. A higher GI50 goes with lower sensitivity of the cells. `N#CC1=CC2(c3ccccc3NC3C=CC=CC32)N(/N=C/c2ccccc2)C1=O` (stereo not given) registered a GI50 in the series on HaCaT of 2000 nM.
